US20120196927A1, “PROPHYLACTIC AND/OR THERAPEUTIC AGENT FOR METABOLIC SYNDROME” (priority 2009, published 2012)

Tests used:
C57BL/6J-ob/ob mice [1] = type: in vivo, mouse; details: p.o. daily 5 weeks, nobiletin 200 mg/kg/day (No200), Pioglitazone 30 mg/kg/day (P30)
Description: (§4) Diabetes model mice and the experimental system were as follows. As the diabetes model mice, 7 week age of male C57BL/6J-ob/ob (hereinafter, it was referred to as “ob/ob”) were purchased from Charles River Laboratories Japan Inc., and used as 10 mice/group.
For the negative control group (from FIGS. 5 to 10, it was shown as Vehicle; hereinafter, it is referred to as “solvent administration group”), 0.3% of CMC aqueous solution was administrated orally for 5 weeks in everyday at the dosage of 0.01 mL/g body weight. For the positive control group (in FIGS. 5 to 10 and hereinafter, it was referred to as “P30 administrated group”), 3 mg of Pioglitazone was suspended in 0.3% CMC aqueous solution so as to be orally administrated at the dosage of 0.01 mL/g body weight for 5 weeks in everyday (dosage: 30 mg/kg body weight/day).
For the sample ingestion group (in FIGS. 5 to 10 and hereinafter, it is referred to as “No200 ingestion group”), 20 mg of nobiletin purified as mentioned above (1) was suspended in 0.3% of carboxymethylcellulose (CMC) aqueous solution so as to be orally administrated at the dose of 0.01 mL/g body weight for 5 weeks in everyday (the dose: 200 mg/kg/day).
The body weight of mice, ingestion amount, weight of the white adipose tissue and liver weight of each mice were measured as the same as described in the example 3.

[2] = tested on: GLUT4, Adiponectin, TNF-α, MCP-1, IL-6, PPARγ, aP2, LPL, Perilipin genes; experiment: Diabetes model mice: mRNA expression in the white adipose tissue (real time RT-PCR); type: in vivo, mouse; details: ob/ob mice, Vehicle = 1.00, nobiletin 200 mg/kg/day, Pioglitazone 30 mg/kg/day, 5 weeks
Procedure: (§1) The effects by nobiletin ingestion to the mRNA expression in the white adipose tissue and the liver were measured (n=10).
(§2) After the termination of the administration period for 5 weeks, mRNA expression levels of respective genes shown in the table 10 were determined by using real time RT-PCR method. The real time RT-PCR was carried out according to an operation manual provided by ISOGEN (NIPPON GENE CO., LTD); RNA was extracted from the white adipose tissue and the liver. Next, cDNA was prepared from using 1 μg of RNA by using Reverse Transcription System kit (Promega Corp., USA). Next, suitable primers for the above-mentioned genes were prepared according to the operation manual provided by FastStart universal SYBR (a registered trademark) Greenmaster PCR KIT agent (Roche Diagnostics K. K., Germany).
(§3) Real time PCR system 7700HT (Applied Biosytems, USA) was used for the determination to carry out the real time PCR by using the cDNAs as templates. Each reaction conditions were set according to the manual of the PCR KIT. Quantitative analysis of the RNA amount was carried out based on comparative Ct method by using glyceraldehyde 3-phosphate dehydrogenase (GAPDH) as the standard reference.

[3] = tested on: gluconeogenesis-related genes PEPCK, G6Pase; experiment: Diabetes model mice: mRNA expression in the liver (real time RT-PCR); type: in vivo, mouse; details: ob/ob mice, Vehicle = 1.00, nobiletin 200 mg/kg/day, Pioglitazone 30 mg/kg/day, 5 weeks
Procedure: as §1, §2, §3

male C57BL/6 mice [4] = experiment: Nobiletin, obesity-induced mice: tissue weight; type: in vivo, mouse; details: HFD obesity-induced mice
Description: Six weeks age of male C57BL/6 mice were preliminary reared for 1 week (−9 to −8 week); then classified into 4 groups (n=9 in each group). LFD was given to one group and HFD was given to other 3 groups for 8 weeks (−8 to +5 week). From 8 weeks (15 week age) to 13 weeks, each group was given the following agents per os for 5 weeks in everyday. In below, the LFD administration group was defined that they ingested LFD; the HFD administration group is defined that they ingested the HFD without nobiletin. The compositions of the LFD and HFD are the same as those used in the Example 3.
To both of the LFD administration group and the HFD administration group, 0.3% CMC aqueous solution was given at the amount of 0.01 mL/g body weight. […] The group to which nobiletin was given at the amount of 10 mg/kg/day was referred to as “No10 administration group; the abbreviated as HFD+No 10” and another group to which nobiletin was given at the amount of 100 mg/kg/day was referred to as “No 100 administration group; abbreviated as HFD+No 100”. The schedule of the feed ingestion and administration of the agent for the above-mentioned 4 groups were schematically shown in FIG. 12A.

male C57BL/6 mice [5] = experiment: Nobiletin, obesity-induced mice: blood lipid, glucose and adiponectin level; type: in vivo, mouse; details: HFD; for Adipo *2 (Relative level of adiponectin): blood adiponectin to total weight of the white adipose tissue
Procedure: After the completion of the experiment, the levels of the blood neutral fat, total cholesterol, glucose, and adiponectin in the fating state, and those of the blood neutral fat, total cholesterol, and glucose in satiety state were determined as the same as those in the Example 1. In the table 22, relative adiponectin level means the ratio of specific level of the blood adiponectin to the total weight of the white adipose tissue.

male C57BL/6 mice [6] = experiment: Nobiletin, obesity-induced mice: glucose tolerance test (OGTT); type: in vivo, mouse; details: for Blood glucose level (OGTT): HFD
Procedure: The sugar tolerance test was carried out as the same as those done in the example 2 (n=9).

[7] = tested on: adipose cells of the white adipose tissue; experiment: Nobiletin, obesity-induced mice: size of the adipose cells; type: in vivo, mouse; details: epididymis adipose tissue sections
Description: After the completion of the experiment, the adipose tissue of mice epididymis was excised to prepare sections to stain by using both of hematoxylin and eosin (n=9). These sections were observes under the microscope with 200-fold magnification to compare cell seizes in the field of photomicroscope vision.

C57BL/6J-ob/ob mice [8] = details: nobiletin 200 mg/kg/day, Pioglitazone 30 mg/kg/day, 5 weeks
Description: as §4
For the negative control group (from FIGS. 5 to 10, it was shown as Vehicle; hereinafter, it is referred to as “solvent administration group”), 0.3% of CMC aqueous solution was administrated orally for 5 weeks in everyday at the dosage of 0.01 mL/g body weight. For the positive control group (in FIGS. 5 to 10 and hereinafter, it was referred to as “P30 administrated group”), 3 mg of Pioglitazone was suspended in 0.3% CMC aqueous solution so as to be orally administrated at the dosage of 0.01 mL/g body weight for 5 weeks in everyday (dosage: 30 mg/kg body weight/day). […]
The blood insulin level was measured as described in below. […] As lipids in plasma, concentrations of neutral fat (TG) and total cholesterol (T-CHO) were measured. Plasma insulin level was measured by using rebis insulin mouse (type U) (Shibayagi Co. Ltd.) based on the enzyme-immunoassay.

[9] = nobiletin 10 mg/kg/day p.o. 5 weeks
[10] = nobiletin 100 mg/kg/day p.o. 5 weeks
[11] = Fasting state, nobiletin 10 mg/kg/day p.o. 5 weeks
[12] = Fasting state, nobiletin 100 mg/kg/day p.o. 5 weeks
[13] = Satiety state, nobiletin 10 mg/kg/day p.o. 5 weeks
[14] = Satiety state, nobiletin 100 mg/kg/day p.o. 5 weeks

COc1ccc(-c2cc(=O)c3c(OC)c(OC)c(OC)c(OC)c3o2)cc1OC [nobiletin]
Gained body weight (C57BL/6J-ob/ob mice [1]): 9.33 ± 0.49 g | white adipose tissue (C57BL/6J-ob/ob mice [1]): 5.69 ± 0.17 g | Gene expression level (ratio), [W]Adiponectin [2]: 1.54 ± 0.04 | Gene expression level (ratio), [W]GLUT4 [2]: 1.88 ± 0.12 | Gene expression level (ratio), [W]IL-6 [2]: 0.55 ± 0.03 | Gene expression level (ratio), [W]LPL [2]: 1.50 ± 0.18 | Gene expression level (ratio), [W]MCP-1 [2]: 0.64 ± 0.02 | Gene expression level (ratio), [W]PPARγ [2]: 1.79 ± 0.02 | Gene expression level (ratio), [W]Perilipin [2]: 1.61 ± 0.17 | Gene expression level (ratio), [W]TNF-α [2]: 0.80 ± 0.048 | Gene expression level (ratio), [W]aP2 [2]: 1.10 ± 0.01 | Gene expression level (ratio), [L]G6Pase [3]: 0.29 ± 0.01 | Gene expression level (ratio), [L]PEPCK [3]: 0.34 ± 0.03 | Tissue Weight, Kidney (male C57BL/6 mice [4]; [9]): 0.34 ± 0.02 g/100 g of body weight | Tissue Weight, Liver (male C57BL/6 mice [4]; [9]): 1.28 ± 0.08 g/100 g of body weight | Tissue Weight, White adipose tissue (male C57BL/6 mice [4]; [9]): 1.96 ± 0.28 g/100 g of body weight | Tissue Weight, White adipose tissue [Periphery of genitals] (male C57BL/6 mice [4]; [9]): 1.23 ± 0.19 g/100 g of body weight | Tissue Weight, White adipose tissue [Periphery of intestine] (male C57BL/6 mice [4]; [9]): 0.27 ± 0.04 g/100 g of body weight | Tissue Weight, White adipose tissue [Periphery of kidney] (male C57BL/6 mice [4]; [9]): 0.47 ± 0.07 g/100 g of body weight | Tissue Weight, Kidney (male C57BL/6 mice [4]; [10]): 0.35 ± 0.01 g/100 g of body weight | Tissue Weight, Liver (male C57BL/6 mice [4]; [10]): 1.40 ± 0.04 g/100 g of body weight | Tissue Weight, White adipose tissue (male C57BL/6 mice [4]; [10]): 1.52 ± 0.15 g/100 g of body weight | Tissue Weight, White adipose tissue [Periphery of genitals] (male C57BL/6 mice [4]; [10]): 0.92 ± 0.09 g/100 g of body weight | Tissue Weight, White adipose tissue [Periphery of intestine] (male C57BL/6 mice [4]; [10]): 0.20 ± 0.02 g/100 g of body weight | Tissue Weight, White adipose tissue [Periphery of kidney] (male C57BL/6 mice [4]; [10]): 0.36 ± 0.03 g/100 g of body weight | Blood level, Adipo *1 (adiponectin) (male C57BL/6 mice [5]; [11]): 7.19 ± 0.82 µg/mL | Blood level, Glucose (male C57BL/6 mice [5]; [11]): 157.47 ± 10.54 mg/dL | Blood level, T-CHO (male C57BL/6 mice [5]; [11]): 109.88 ± 9.09 mg/dL | Blood level, TG (male C57BL/6 mice [5]; [11]): 79.99 ± 8.04 mg/dL | Blood level, Adipo *1 (adiponectin) (male C57BL/6 mice [5]; [12]): 6.96 ± 0.99 µg/mL | Blood level, Glucose (male C57BL/6 mice [5]; [12]): 128.49 ± 5.59 mg/dL | Blood level, T-CHO (male C57BL/6 mice [5]; [12]): 131.55 ± 8.63 mg/dL | Blood level, TG (male C57BL/6 mice [5]; [12]): 78.69 ± 6.57 mg/dL | Blood level, Glucose (male C57BL/6 mice [5]; [13]): 224 ± 24.67 mg/dL | Blood level, T-CHO (male C57BL/6 mice [5]; [13]): 147.47 ± 10.40 mg/dL | Blood level, TG (male C57BL/6 mice [5]; [13]): 141.05 ± 12.25 mg/dL | Blood level, Glucose (male C57BL/6 mice [5]; [14]): 224.76 ± 21.88 mg/dL | Blood level, T-CHO (male C57BL/6 mice [5]; [14]): 169.24 ± 6.03 mg/dL | Blood level, TG (male C57BL/6 mice [5]; [14]): 100.80 ± 14.95 mg/dL | Adipo *2 (Relative level of adiponectin) (male C57BL/6 mice [5]; Fasting state, nobiletin 10 mg/kg/day p.o.): 3.87 ± 0.86 µg/mL/g | Adipo *2 (Relative level of adiponectin) (male C57BL/6 mice [5]; Fasting state, nobiletin 100 mg/kg/day p.o.): 5.34 ± 0.97 µg/mL/g | area under the curve (AUC) of blood glucose in OGTT, compared with HFD administration group (male C57BL/6 mice [6]; 0 to 120 minutes, nobiletin 10 mg/kg/day p.o.): no significant difference | area under the curve (AUC) of blood glucose in OGTT, compared with HFD group (male C57BL/6 mice [6]; 0 to 120 minutes, nobiletin 100 mg/kg/day p.o., p<0.05): significant difference | Blood glucose level (OGTT) (male C57BL/6 mice [6]; 0 minute after glucose, nobiletin 10 mg/kg/day p.o.): 157.47 ± 10.54 mg/dL | Blood glucose level (OGTT) (male C57BL/6 mice [6]; 0 minute after glucose, nobiletin 100 mg/kg/day p.o.): 128.49 ± 5.59 mg/dL | Blood glucose level (OGTT) (male C57BL/6 mice [6]; 15 minutes after glucose, nobiletin 10 mg/kg/day p.o.): 384.94 ± 17.66 mg/dL | Blood glucose level (OGTT) (male C57BL/6 mice [6]; 15 minutes after glucose, nobiletin 100 mg/kg/day p.o.): 340.91 ± 16.88 mg/dL | Blood glucose level (OGTT) (male C57BL/6 mice [6]; 30 minutes after glucose, nobiletin 10 mg/kg/day p.o.): 342.5 ± 27.08 mg/dL | Blood glucose level (OGTT) (male C57BL/6 mice [6]; 30 minutes after glucose, nobiletin 100 mg/kg/day p.o.): 334.84 ± 16.98 mg/dL | Blood glucose level (OGTT) (male C57BL/6 mice [6]; 60 minutes after glucose, nobiletin 10 mg/kg/day p.o.): 271.76 ± 31.64 mg/dL | Blood glucose level (OGTT) (male C57BL/6 mice [6]; 60 minutes after glucose, nobiletin 100 mg/kg/day p.o.): 267.27 ± 18.22 mg/dL | Blood glucose level (OGTT) (male C57BL/6 mice [6]; 120 minutes after glucose, nobiletin 10 mg/kg/day p.o.): 217.1 ± 35.92 mg/dL | Blood glucose level (OGTT) (male C57BL/6 mice [6]; 120 minutes after glucose, nobiletin 100 mg/kg/day p.o.): 178.45 ± 15.37 mg/dL | adipose cell size compared with HFD group [7, 9]: not large difference | adipose cell size compared with HFD group [7, 10]: became smaller | Adiponectin level in blood, times higher than solvent administration group (C57BL/6J-ob/ob mice [8]): not so high
